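All cell lines were grown in 96-well plates and treated with compound for 48 hours. Definition used: TGI = concentration required for complete inhibition of growth.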
Key:
Test in all cases: inhibition of tumour cell growth, NCI panel, 48 h
UACC-257 melanoma = system: UACC-257 melanoma
SNB-19 CNS = system: SNB-19 CNS
U251 CNS = system: U251 CNS
COLO 205 colon = system: COLO 205 colon
PC-3 prostate = system: PC-3 prostate
SF-539 CNS = system: SF-539 CNS
SK-MEL-2 melanoma = system: SK-MEL-2 melanoma
A498 renal = system: A498 renal
TK-10 renal = system: TK-10 renal
RPMI-8226 leukemia = system: RPMI-8226 leukemia
HOP-62 NSCLC = system: HOP-62 NSCLC
CCRF-CEM leukemia = system: CCRF-CEM leukemia
MCF7 breast = system: MCF7 breast
HS 578T breast = system: HS 578T breast
CAKI-1 renal = system: CAKI-1 renal
HOP-92 NSCLC = system: HOP-92 NSCLC
RXF 393 renal = system: RXF 393 renal
786-0 renal = system: 786-0 renal
ACHN renal = system: ACHN renal
LOX IMVI melanoma = system: LOX IMVI melanoma
NCI-H226 lung = system: NCI-H226 lung
OVCAR-5 ovarian = system: OVCAR-5 ovarian
UO-31 renal = system: UO-31 renal
MDA-N = system: MDA-N
K-562 leukemia = system: K-562 leukemia
MALME-3M melanoma = system: MALME-3M melanoma
SF-295 CNS = system: SF-295 CNS
MDA-MB-435 = system: MDA-MB-435
SF-268 CNS = system: SF-268 CNS
HCT-116 colon = system: HCT-116 colon
SNB-75 CNS = system: SNB-75 CNS
HT29 colon = system: HT29 colon
KM12 colon = system: KM12 colon
HCT-15 colon = system: HCT-15 colon
M14 melanoma = system: M14 melanoma
A549 NSCLC = system: A549 NSCLC
T-47D breast = system: T-47D breast
SN12C renal = system: SN12C renal
HCC-2998 colon = system: HCC-2998 colon
NCI-H522 lung = system: NCI-H522 lung
MDA-MB-231 breast = system: MDA-MB-231 breast
NCI-H23 lung = system: NCI-H23 lung
UACC-62 melanoma = system: UACC-62 melanoma
NCI-H460 lung = system: NCI-H460 lung
BT-549 breast = system: BT-549 breast
EKVX NSCLC = system: EKVX NSCLC
MOLT-4 leukemia = system: MOLT-4 leukemia
NCI/ADR-RES ovarian = system: NCI/ADR-RES ovarian
OVCAR-3 ovarian = system: OVCAR-3 ovarian
OVCAR-4 ovarian = system: OVCAR-4 ovarian
SK-MEL-5 melanoma = system: SK-MEL-5 melanoma
IGROV1 ovarian = system: IGROV1 ovarian
OVCAR-8 ovarian = system: OVCAR-8 ovarian
DU-145 prostate = system: DU-145 prostate
SK-OV-3 ovarian = system: SK-OV-3 ovarian
SK-MEL-28 melanoma = system: SK-MEL-28 melanoma
SR leukemia = system: SR leukemia
SW-620 colon = system: SW-620 colon
HL-60(TB) leukemia = system: HL-60(TB) leukemia

For C[C@]12CC/C(=N\OCCN3CCCC3)C=C1CCC1C2CC[C@@]2(C)C1CC[C@]2(C)O (stereo partly drawn), which TGI (UACC-257 melanoma) is on record?
Its TGI is 17.8 µM.

And the TGI (SNB-19 CNS)?
Its TGI is 49 µM.

And the TGI (U251 CNS)?
Its TGI is 20.2 µM.

And the TGI (COLO 205 colon)?
The TGI was 11.9 µM.

And the TGI (PC-3 prostate)?
Its TGI is 71.7 µM.

And the TGI (SF-539 CNS)?
The TGI was 22.9 µM.

And the TGI (SK-MEL-2 melanoma)?
The TGI was 44.2 µM.

And the TGI (A498 renal)?
Its TGI is 4.7 µM.

And the TGI (TK-10 renal)?
Its TGI is 37 µM.

What about the TGI (RPMI-8226 leukemia) of the same compound?
Its TGI is 14 µM.

And the TGI (HOP-62 NSCLC)?
The TGI was 50 µM.

And the TGI (CCRF-CEM leukemia)?
Its TGI is 9.6 µM.

And the TGI (MCF7 breast)?
The TGI was over 100 µM.

And the TGI (HS 578T breast)?
Its TGI is 43.7 µM.

What about the TGI (CAKI-1 renal) of the same compound?
The TGI was 24.1 µM.

What about the TGI (HOP-92 NSCLC) of the same compound?
Its TGI is 32.3 µM.

And the TGI (RXF 393 renal)?
Its TGI is 75.5 µM.

What about the TGI (786-0 renal) of the same compound?
The TGI was 14.8 µM.

And the TGI (ACHN renal)?
Its TGI is 50.3 µM.

What about the TGI (LOX IMVI melanoma) of the same compound?
The TGI was 15.1 µM.

And the TGI (NCI-H226 lung)?
The TGI was 11.8 µM.

What about the TGI (OVCAR-5 ovarian) of the same compound?
The TGI was over 100 µM.

And the TGI (UO-31 renal)?
Its TGI is 24.4 µM.

What about the TGI (MDA-N) of the same compound?
Its TGI is 6.33 µM.

What about the TGI (K-562 leukemia) of the same compound?
Its TGI is 14.2 µM.

What about the TGI (MALME-3M melanoma) of the same compound?
The TGI was 18.7 µM.

And the TGI (SF-295 CNS)?
The TGI was 12.3 µM.

And the TGI (MDA-MB-435)?
Its TGI is 6.67 µM.

And the TGI (SF-268 CNS)?
The TGI was 31.9 µM.

And the TGI (HCT-116 colon)?
The TGI was 18 µM.

What about the TGI (SNB-75 CNS) of the same compound?
Its TGI is 11.9 µM.

And the TGI (HT29 colon)?
Its TGI is 5.69 µM.

And the TGI (KM12 colon)?
The TGI was 19.1 µM.

And the TGI (HCT-15 colon)?
The TGI was 15 µM.

And the TGI (M14 melanoma)?
The TGI was 37.1 µM.

What about the TGI (A549 NSCLC) of the same compound?
Its TGI is 42.5 µM.

And the TGI (T-47D breast)?
Its TGI is 64 µM.

What about the TGI (SN12C renal) of the same compound?
The TGI was 21.3 µM.

And the TGI (HCC-2998 colon)?
The TGI was 24.3 µM.

What about the TGI (NCI-H522 lung) of the same compound?
The TGI was 8.57 µM.

What about the TGI (MDA-MB-231 breast) of the same compound?
The TGI was 34 µM.

What about the TGI (NCI-H23 lung) of the same compound?
Its TGI is 35.8 µM.

And the TGI (UACC-62 melanoma)?
The TGI was 11.8 µM.

What about the TGI (NCI-H460 lung) of the same compound?
The TGI was 16.3 µM.

And the TGI (BT-549 breast)?
The TGI was 28.2 µM.

What about the TGI (EKVX NSCLC) of the same compound?
The TGI was 34 µM.

And the TGI (MOLT-4 leukemia)?
Its TGI is 12.6 µM.

What about the TGI (NCI/ADR-RES ovarian) of the same compound?
The TGI was 15.4 µM.

And the TGI (OVCAR-3 ovarian)?
Its TGI is 24.1 µM.

And the TGI (OVCAR-4 ovarian)?
The TGI was 82.4 µM.

What about the TGI (SK-MEL-5 melanoma) of the same compound?
Its TGI is 29.9 µM.

What about the TGI (IGROV1 ovarian) of the same compound?
Its TGI is 35.9 µM.

What about the TGI (OVCAR-8 ovarian) of the same compound?
The TGI was 31.6 µM.

And the TGI (DU-145 prostate)?
Its TGI is 39.5 µM.

And the TGI (SK-OV-3 ovarian)?
Its TGI is 44.5 µM.

O=C(O)CNc1ncc2c(n1)-c1ccccc1OC2 was tested. Which TGI (SK-MEL-28 melanoma) did it give?
The TGI was over 100 µM.

And the TGI (UACC-257 melanoma)?
The TGI was over 100 µM.

And the TGI (SNB-19 CNS)?
Its TGI is over 100 µM.

What about the TGI (U251 CNS) of the same compound?
The TGI was over 100 µM.

What about the TGI (COLO 205 colon) of the same compound?
Its TGI is over 100 µM.

And the TGI (PC-3 prostate)?
The TGI was over 100 µM.

And the TGI (SF-539 CNS)?
Its TGI is over 100 µM.

What about the TGI (SK-MEL-2 melanoma) of the same compound?
Its TGI is over 100 µM.

And the TGI (TK-10 renal)?
The TGI was over 100 µM.

And the TGI (RPMI-8226 leukemia)?
The TGI was over 100 µM.

And the TGI (HOP-62 NSCLC)?
Its TGI is over 100 µM.

And the TGI (CCRF-CEM leukemia)?
Its TGI is over 100 µM.

And the TGI (MCF7 breast)?
Its TGI is over 100 µM.

And the TGI (HS 578T breast)?
Its TGI is over 100 µM.

What about the TGI (CAKI-1 renal) of the same compound?
Its TGI is over 100 µM.

And the TGI (HOP-92 NSCLC)?
Its TGI is over 100 µM.

And the TGI (RXF 393 renal)?
The TGI was over 100 µM.

What about the TGI (786-0 renal) of the same compound?
The TGI was over 100 µM.

And the TGI (ACHN renal)?
The TGI was over 100 µM.

What about the TGI (LOX IMVI melanoma) of the same compound?
Its TGI is over 100 µM.

And the TGI (OVCAR-5 ovarian)?
Its TGI is over 100 µM.

What about the TGI (UO-31 renal) of the same compound?
The TGI was over 100 µM.

What about the TGI (MDA-N) of the same compound?
The TGI was over 100 µM.

And the TGI (K-562 leukemia)?
Its TGI is over 100 µM.

And the TGI (MALME-3M melanoma)?
The TGI was over 100 µM.

And the TGI (SF-295 CNS)?
The TGI was over 100 µM.

And the TGI (MDA-MB-435)?
The TGI was over 100 µM.

What about the TGI (SF-268 CNS) of the same compound?
The TGI was over 100 µM.

And the TGI (SR leukemia)?
The TGI was over 100 µM.

What about the TGI (HCT-116 colon) of the same compound?
The TGI was over 100 µM.

And the TGI (SNB-75 CNS)?
Its TGI is over 100 µM.

What about the TGI (HT29 colon) of the same compound?
The TGI was over 100 µM.

And the TGI (KM12 colon)?
Its TGI is over 100 µM.

What about the TGI (HCT-15 colon) of the same compound?
The TGI was over 100 µM.

What about the TGI (M14 melanoma) of the same compound?
The TGI was over 100 µM.

And the TGI (A549 NSCLC)?
The TGI was over 100 µM.

And the TGI (SN12C renal)?
Its TGI is over 100 µM.

What about the TGI (SW-620 colon) of the same compound?
Its TGI is over 100 µM.

What about the TGI (MDA-MB-231 breast) of the same compound?
The TGI was over 100 µM.

And the TGI (NCI-H23 lung)?
Its TGI is over 100 µM.

What about the TGI (UACC-62 melanoma) of the same compound?
Its TGI is over 100 µM.

What about the TGI (NCI-H460 lung) of the same compound?
Its TGI is over 100 µM.

What about the TGI (EKVX NSCLC) of the same compound?
Its TGI is over 100 µM.

And the TGI (MOLT-4 leukemia)?
Its TGI is over 100 µM.

What about the TGI (NCI/ADR-RES ovarian) of the same compound?
The TGI was over 100 µM.

What about the TGI (OVCAR-3 ovarian) of the same compound?
Its TGI is over 100 µM.

What about the TGI (OVCAR-4 ovarian) of the same compound?
The TGI was over 100 µM.

What about the TGI (SK-MEL-5 melanoma) of the same compound?
The TGI was over 100 µM.

What about the TGI (IGROV1 ovarian) of the same compound?
Its TGI is over 100 µM.

And the TGI (OVCAR-8 ovarian)?
The TGI was over 100 µM.

What about the TGI (DU-145 prostate) of the same compound?
Its TGI is over 100 µM.

And the TGI (SK-OV-3 ovarian)?
Its TGI is over 100 µM.

What about the TGI (HL-60(TB) leukemia) of the same compound?
The TGI was over 100 µM.
